Where a name gives a salt, the structure may show the parent alone.

In the first experiment the test system is IL-1β. Briefly: IL-1β gene expression in LPS-stimulated RAW264.7 macrophages. Format: cell-based. The conditions noted are these: RAW264.7; 50 μM and 100 μM; FIG. 4. How it is done: RAW264.7 macrophages were seeded at a density of 100,000 cells/well in a 96-well plate in DMEM supplemented with 10% FBS and Penn/strep. 16 hours later, medium was aspirated and replaced with 90 μl/well of serum-free DMEM. A fatty acid fumarate conjugate, DHA and monomethyl-fumarate (MMF) were brought up in 100% EtOH to a concentration of 100 mM and then diluted 1:100 in 100% FBS for a stock solution consisting of 1 mM compound and 1% EtOH. these stock solutions were then diluted 1:10 in FBS supplemented with 1% EtOH to generate a 100 μM of a fatty acid fumarate conjugate and 100 μM each of DHA and MMF. 10 μl was then added to the RAW246.7 cells to generate final concentrations 10 μM of the fatty acid fumarate conjugate or 10 μM each DHA and MMF, along with vehicle only control. […] IL-1β and TNF-α transcript levels were then measured using Taqman primer/probe assay sets (Applied Biosystems), normalized to GAPDH using the deltaCt method, and the data expressed relative to vehicle only control. […]
RAW264.7 macrophages are seeded at a density of 100,000 cells/well in a 96-well plate in DMEM supplemented with 10% FBS and Penn/strep. […] Transcript levels are then measured using ABI Taqman primer/probe assay kits, normalized to GAPDH using the deltaCt method, and the data expressed relative to vehicle only control.
On to `COC(=O)/C=C/C(=O)NCCNC(=O)CCCC[C@@H]1CCSS1` [Compound I-105, (R,E)-methyl 4-(2-(5-(1,2-dithiolan-3-yl)pentanamido)ethylamino)-4-oxobut-2-enoate], for which the “effect on IL-1β target gene expression” value is “positive effect”.

The next experiment deals with Hmox1. Nature of the experiment: Hmox1 target gene expression in RAW264.7 macrophages. The conditions noted are these: RAW264.7; 50 μM and 100 μM; FIG. 4. The format is cell-based. As to the method: RAW264.7 macrophages are seeded at a density of 100,000 cells/well in a 96-well plate in DMEM supplemented with 10% FBS and Penn/strep. 16 hours later, medium is aspirated and replaced with 90 μl/well of serum-free DMEM. A fatty acid fumarate conjugate, DHA and EPA are brought up in 100% EtOH to a concentration of 100 mM and then diluted 1:100 In 100% FBS for a 20× stock solution consisting of 1 mM compound and 1% EtOH. The fatty acid fumarate conjugate 20× stock solutions are diluted 1:2 in FBS supplemented with 1% EtOH for a 500 uM 10× stock solution, whereas equal volumes of the DHA and EPA 20× stock solutions are mixed to create a 10× stock solution containing 500 μm each of DHA and EPA. […] The compounds are allowed to pre-incubate for 2 hours before stimulation of 100 ng/ml LPS (10 μl of 1 μg/ml LPS is added to each well). Following 3 hours of LPS stimulation, cells are washed once in 1× PBS, aspirated dry, and flash frozen in liquid nitrogen. RNA is then isolated and converted to cDNA using the Cells to cDNA kit (Ambion) according to the manufacturer's protocol. Transcript levels are then measured using ABI Taqman primer/probe assay kits, normalized to GAPDH using the deltaCt method, and the data expressed relative to vehicle only control.
In the case of `COC(=O)/C=C/C(=O)NCCNC(=O)CCCC[C@@H]1CCSS1` [Compound I-105, (R,E)-methyl 4-(2-(5-(1,2-dithiolan-3-yl)pentanamido)ethylamino)-4-oxobut-2-enoate], the “effect on the target gene Hmox1” value was “positive effect”.

For a further experiment, the system named is NF-κB. Briefly: NF-κB luciferase reporter assay in RAW 264.7 macrophages. Format: cell-based. The conditions noted are these: Mus musculus, RAW264.7; RAW 264.7 cells with 3× NFκB response element luciferase reporter; 2 hour pretreatment, 200 ng/ml LPS for 3 hours; read-out: NF-kB inhibitory activity. How it is done:
RAW 264.7 cells stably expressing a 3× NFκB response elemement-drive luciferase reporter were seeded into 96 well plates in sera-free medium (Optimem) 18 hours prior to compound application. Compounds of the invention were prepared by first making […] stock solutions in EtOH. Stock solutions were then diluted 1:100 in low LPS FBS (Gemini BenchMark 100-106), mixed vigorously and allowed to incubate at room temperature for 30 minutes, 1:2 serial dilutions were then made in FBS supplemented with 1% EtOH, mixed vigorously, and again allowed to incubate at room temperature for 30 minutes before adding to RAW 264.7 reporter cells (final concentrations: 10% FBS, 100 uM highest compound dilution, 0.1% EtOH) for a 2 hour pretreatment prior to stimulation with LPS. Cells were then stimulated with 200 ng/ml LPS or vehicle control for 3 hours in the presence of the compounds of the invention. A set of six vehicles was left unstimulated with LPS in order to measure the assay floor. AlamarBlue viability dye (Invitrogen) was added to cells simultaneously with the delivery of LPS (final AlamarBlue concentration of 10%). After the 3 h incubation period with LPS, cell viability was measured by reading fluorescence (excitation 550 nm, emission 595 nm) with a Perkin Elmer Victor V plate reader. Then cell media was aspirated from each well. Luciferase signal was then developed by addition of the Britelite Plus reagent (Perkin Elmer). Luciferase activity was measured with the Perkin Elmer Victor V plate reader. NF-κB activity was expressed as a percent of the vehicle control wells (stimulated with LPS). Compounds were tested at 6 dose point titrations in triplicate to determine IC50 values.
Table 1 summarizes the IC50 values for a number of fatty acid fumarate conjugates in this NF-κB luciferase reporter assay. In this table, MMF=mono methyl fumarate.
For orientation: A reporter such as luciferase makes a cellular process visible.
Take `CC/C=C\C/C=C\C/C=C\C/C=C\C/C=C\C/C=C\CCC(=O)NCCN1C(=O)CC(SC[C@H](NC(=O)/C=C/C(=O)OC)C(=O)OC)C1=O` (stereo partly drawn) [Compound I-39, (E)-methyl 4-((R)-3-(1-(2-(4Z,7Z,10Z,13Z,16Z,19Z)-docosa-4,7,10,13,16,19-hexaenamidoethyl)-2,5-dioxopyrrolidin-3-ylthio)-1-methoxy-1-oxopropan-2-ylamino)-4-oxobut-2-enoate]: the IC50 was in the range of 50 to 200 µM.

On to `CC/C=C\C/C=C\C/C=C\C/C=C\C/C=C\C/C=C\CCC(=O)NCCNC(=O)/C=C/C(=O)OCC` [Compound I-66, (E)-ethyl 4-(2-(4Z,7Z,10Z,13Z,16Z,19Z)-docosa-4,7,10,13,16,19-hexaenamidoethylamino)-4-oxobut-2-enoate], for which the IC50 was 50 to 200 µM.

Consider `CC/C=C\C/C=C\C/C=C\C/C=C\C/C=C\C/C=C\CCC(=O)NCCSSCCNC(=O)/C=C/C(=O)OC` [Compound I-5, (E)-methyl 4-(2-(2-(2-(4Z,7Z,10Z,13Z,16Z,19Z)-docosa-4,7,10,13,16,19-hexaenamidoethyl)disulfanyl)ethylamino)-4-oxobut-2-enoate], for which the IC50 fell in the range of 50 to 200 µM.

Turning to `CC/C=C\C/C=C\C/C=C\C/C=C\C/C=C\C/C=C\CCC(=O)N(C)CCN(C)C(=O)/C=C/C(=O)OC` [Compound I-104, (E)-methyl 4-(methyl(2-((4Z,7Z,10Z,13Z,16Z,19Z)-N-methyldocosa-4,7,10,13,16,19-hexaenamido)ethyl)amino)-4-oxobut-2-enoate], the IC50 is no less than 100 µM.

On to `CC/C=C\C/C=C\C/C=C\C/C=C\C/C=C\C/C=C\CCC(=O)N1C[C@@H](C)N(C(=O)/C=C/C(=O)OC)[C@@H](C)C1` [Compound I-41, (E)-methyl 4-((2R,6S)-4-((4Z,7Z,10Z,13Z,16Z,19Z)-docosa-4,7,10,13,16,19-hexaenoyl)-2,6-dimethylpiperazin-1-yl)-4-oxobut-2-enoate], for which the IC50 was in the range of 50 to 200 µM.

On to `CC/C=C\C/C=C\C/C=C\C/C=C\C/C=C\C/C=C\CCC(=O)NCCOC(=O)/C=C/C(=O)OC` [Compound I-103, 2-(4Z,7Z,10Z,13Z,16Z,19Z)-docosa-4,7,10,13,16,19-hexaenamidoethyl methyl fumarate], for which the IC50 was 50 to 200 µM.

For the compound `CC/C=C\C/C=C\C/C=C\C/C=C\C/C=C\CCCC(=O)N[C@@H](CCCCNC(=O)/C=C/C(=O)OC)C(=O)O` [Compound I-72, (S)-2-((5Z,8Z,11Z,14Z,17Z)-icosa-5,8,11,14,17-pentaenamido)-6-((E)-4-methoxy-4-oxobut-2-enamido)hexanoic acid], the IC50 lay within 50 to 200 µM.

On to `CC/C=C\C/C=C\C/C=C\C/C=C\C/C=C\C/C=C\CCC(=O)NCCNC(=O)/C=C/C(=O)O` [Compound I-102, (E)-4-(2-(4Z,7Z,10Z,13Z,16Z,19Z)-docosa-4,7,10,13,16,19-hexaenamidoethylamino)-4-oxobut-2-enoic acid], for which the IC50 is no less than 100 µM.

Take `COC(=O)/C=C/C(=O)O` [MMF, mono methyl fumarate, reference compound]: the IC50 was no less than 100 µM.

The same experiment, now with this note: RAW 264.7 cells with 3× NFκB response element luciferase reporter; 2 hour pretreatment, 200 ng/ml LPS for 3 hours.
As to `CC/C=C\C/C=C\C/C=C\C/C=C\C/C=C\C/C=C\CCC(=O)NCCCC[C@H](NC(=O)/C=C/C(=O)OC)C(=O)OC` [Compound I-6, (S)-methyl 6-((4Z,7Z,10Z,13Z,16Z,19Z)-docosa-4,7,10,13,16,19-hexaneamido)-2-((E)-4-methoxy-4-oxobut-2-enamido)hexanoate], the NF-kB inhibitory activity result was “+ +”.

`CC/C=C\C/C=C\C/C=C\C/C=C\C/C=C\CCCC(=O)NCCNC(=O)/C=C/C(=O)OC` [Compound I-2, (E)-methyl 4-(2-(5Z,8Z,11Z,14Z,17Z) -eicosa-5,8,11,14,17-pentaenamidoethylamino)-4-oxobut-2-enoate]: the NF-kB inhibitory activity entry is listed as “+ +”.

For the compound `CC/C=C\C/C=C\C/C=C\C/C=C\C/C=C\C/C=C\CCC(=O)NCC(C)(C)NC(=O)/C=C/C(=O)OC` [Compound I-22], the NF-kB inhibitory activity entry is reported as “+ +”.

Consider `CC/C=C\C/C=C\C/C=C\C/C=C\C/C=C\C/C=C\CCC(=O)N1CCN(C(=O)/C=C/C(=O)OC)CC1` [Compound I-40, (E)-methyl 4-(4-(4Z,7Z,10Z,13Z,16Z,19Z)-docosa-4,7,10,13,16,19-hexaenoylpiperazin-1-yl)-4-oxobut-2-enoate], for which the NF-kB inhibitory activity entry is “+ +”.

For the compound `CC/C=C\C/C=C\C/C=C\C/C=C\C/C=C\C/C=C\CCC(=O)NCCN(C)CCNC(=O)/C=C/C(=O)OC` [Compound I-4, (E)-methyl 4-(2-((2-(4Z,7Z,10Z,13Z,16Z,19Z)-docosa-4,7,10,13,16,19-hexaenamidoethyl)(methyl)amino)ethylamino)-4-oxobut-2-enoate], the NF-kB inhibitory activity entry is “+ +”.

With `CC/C=C\C/C=C\C/C=C\C/C=C\C/C=C\C/C=C\CCC(=O)NCCNC(=O)/C=C/C(=O)OC` [Compound I-67], the NF-kB inhibitory activity entry was “+ +”.

Regarding `CC/C=C\C/C=C\C/C=C\C/C=C\C/C=C\C/C=C\CCC(=O)NCCOCCNC(=O)/C=C/C(=O)OC` [Compound I-3, (E)-methyl 4-(2-(2-(4Z,7Z,10Z,13Z,16Z,19Z)-docosa-4,7,10,13,16,19-hexaenamidoethoxy)ethylamino)-4-oxobut-2-enoate], the NF-kB inhibitory activity entry is reported as “+ +”.

The record behind these values is patent publication US9289503B2, “Fatty acid fumarate derivatives and their uses” (Catabasis Pharmaceuticals, Inc., priority 2010, dated 2016).
